# Experiments:
# C. albicans = experiment: Neutropenic mouse disseminated candidiasis model (Example 9); assay type: in vivo; settings: 20 mg/kg or 80 mg/kg intraperitoneal
# Experimental: (§1) Selvamicin was tested in the neutropenic mouse disseminated candidiasis model. Mice were infected with an inoculum of C. albicans, C. glabrata, and C. auris. After infection, the mice were administered either saline or selvaimicin at 20 mg/kg or 80 mg/kg via an intraperitoneal route. After therapy, the burden of Candida albicans in mouse kidneys was measured by viable plate counts of organ homogenates.
# C. auris = experiment: as above; assay type: in vivo; settings: 20 mg/kg or 80 mg/kg intraperitoneal
# Experimental: as §1
# C. glabrata = experiment: as above; assay type: in vivo; settings: 20 mg/kg or 80 mg/kg intraperitoneal
# Experimental: as §1
# [1] = Isothermal calorimetry sterol binding assay; settings: 150 μM polyene, POPC LUVs with 11 mol % ergosterol, 25° C.
# Experimental: Isothermal Calorimetry Sterol Binding Assay:
# Large unilamellar vesicle (LUV) preparation: In a glass vial, a 25 mg/mL solution of palmitoyl oleoyl phosphatidylcholine (POPC) in chloroform (0.96 mL, Avanti Polar Lipids) was mixed with a freshly prepared 4 mg/mL solution of the appropriate sterol (ergosterol or cholesterol. Aldrich) in chloroform (0.35 mL). The sterol solution was omitted for preparation of sterol-free POPC LUVs. The resulting solution was evaporated to dryness in vacuo to yield a lipid film, which was placed under high vacuum for at least 5 h. To this film was added 1 mL 5 mM HEPES (pH adjusted to 7.4 with KOH) and the resulting suspension was vortexed for 3 min. This lipid suspension was loaded into a syringe and passed through a 0.1 μM filter (Whatman) 21 times using an Avanti Polar Lipids Mini-Extruder to yield an LUN suspension (32 mM POPC, 11 mol % sterol; assumed no loss during extrusion).
# Isothermal calorimetry (ITC) experiments: Solutions of polyene (150 μM selvamicin or nystatin) in 1% DMSO/5 mM HEPES (pH=7.4) were prepared by dilution from a 1.5 mM solution in DMSO. 8 mM POPC LUV suspensions in 1% DMSO/5 mM HEPES (pH=7.4) were prepared by dilution of the above LUV suspensions with HEPES buffer and DMSO. […]
# Candida albicans = experiment: Liquid broth minimum inhibitory concentration; assay type: cell-based; settings: YPD media, 30° C., OD600 at 14 h, 1% DMSO, read-out: MIC against Candida albicans
# Experimental: (§2) Determination of minimum inhibitory concentration: Fresh DMSO solutions of selvarmicin and nystatin were prepared as serial dilutions and dispensed into clear flat-bottom 96-well plates in four replicates. A starting inoculum of the appropriate test strain in media was added to each well to yield a final concentration of 1% DMSO by volume. The plates were incubated at 30° C. with shaking at 200 rpm. Growth was assayed by OD600 readings taken on a M5 plate reader (Molecular Devices). For E. coli, B. subtilis, and M. luteus, the starting inoculum consisted of an overnight culture in LB diluted into LB media at 10 μL/mL and final OD readings were taken at 22 h. For C. albicans and S. cerevisiae, the starting inoculum consisted of an overnight culture in YPD media diluted to an OD600 of 0.05 in YPD media and final OD readings were taken at 14 h. For T. harzianum and A. fumigatus, the starting inoculum consisted of a stock of concentrated conidia diluted into potato dextrose broth at 2 uL/mL and final OD readings were taken at 22 h. Using Prism (GraphPad), the OD data were normalized and fit to a Gompertz function, from which MIC values were extracted.
# (§3) Selvamicin's improved solubility, despite its lack of charged carboxylate and ammonium groups, is probably contributed by its second sugar moiety.
# Solubility determination = assay type: physicochemical; settings: HEPES buffer, aqueous buffer, thermodynamic from solid; 5 mM HEPES pH 7.4, 22° C., UV-vis absorbance
# Experimental: Solubility determination: Solubility for selvamicin and nystatin was measured with minor modifications from a previously reported protocol. 1 Briefly, in microcentrifuge tubes, 20 μL […] HEPES (pH=7.4) was added to 2.5 mg of selvamicin and of nystatin and the resulting suspensions were vortexed vigorously for 30 min at 22° C. The tubes were centrifuged, the resulting supernatants were diluted in HEPES buffer, and concentrations were determined by UV-vis absorbance (306 nm for nystatin and 335 nm for selvamicin).
# Candida albicans K1 = experiment: Neutropenic mouse disseminated candidiasis model (Example 8); assay type: in vivo; settings: 80 mg/kg single intraperitoneal dose 2 h after infection, read 8 h after therapy
# Experimental: (§4) Selvamicin was tested in the neutropenic mouse disseminated candidiasis model. Briefly, mice were infected with an inoculum of 5.70 log 10 cfu/ml of Candida albicans K1. Two hours after infection, the mice were administered either saline or selvamicin at 80 mg/kg via the intraperitoneal route. Eight hours after therapy, the burden of Candida albicans in mouse kidneys was measured by viable plate counts of organ homogenates.
# [2] = Animal toxicity in neutropenic mouse disseminated candidiasis model (Example 8); assay type: in vivo; settings: 80 mg/kg intraperitoneal, neutropenic mice
# Experimental: as §4
# E. coli = experiment: Liquid broth activity testing against bacteria; assay type: cell-based; settings: LB media, OD at 22 h
# Experimental: as §2, §3
# M. luteus = experiment: Liquid broth activity testing against bacteria; assay type: cell-based; settings: LB media, OD at 22 h
# Experimental: as §2, §3
# B. subtilis = experiment: Liquid broth activity testing against bacteria; assay type: cell-based; settings: LB media, OD at 22 h
# Experimental: as §2, §3
Structure (SMILES),Efficacy in preventing C. albicans growth (kidney burden) (C. albicans),Efficacy in preventing C. auris growth (kidney burden) (C. auris),Efficacy in preventing C. glabrata growth (kidney burden) (C. glabrata),"Binding to ergosterol-containing vesicles (ITC, heats evolved) [1]",MIC (Candida albicans) [µM],solubility at 30 min (Solubility determination) [µM],Efficacy: burden of Candida albicans in mouse kidneys (Candida albicans K1),Animal toxicity [2],Activity against Gram-negative bacteria (E. coli) (E. coli),Activity against Gram-positive bacteria (M. luteus) (M. luteus),Activity against Gram-positive bacteria (B. subtilis) (B. subtilis)
CCC1OC(=O)CC[C@@H](O)[C@H](O)C[C@H](O)C[C@]2(O)C[C@H](O)[C@](C)(O)C(CC(O[C@@H]3O[C@H](C)[C@@H](O)[C@H](O)[C@@H]3O)/C=C/C=C/C=C/C=C/C=C/C(C)C(O[C@H]3C[C@@H](O)[C@@H](OC)[C@H](C)O3)C1C)O2 (stereo partly shown) [Selvamicin],demonstrated efficacy,demonstrated efficacy,demonstrated efficacy,no evidence for binding,23,2300,demonstrated efficacy in preventing Candida albicans growth,No animal toxicity was apparent,No activity was detected,No activity was detected,No activity was detected
"C[C@@H]1[C@H](O)[C@@H](C)/C=C/C=C/CC/C=C/C=C/C=C/C=C/[C@H](O[C@H]2O[C@H](C)[C@@H](O)[C@H](N)[C@@H]2O)C[C@@H]2O[C@](O)(C[C@@H](O)[C@H](O)CC[C@@H](O)C[C@@H](O)C[C@@H](O)CC(=O)O[C@H]1C)C[C@H](O)[C@H]2C(=O)O [nystatin A1, reference compound]",–,–,–,–,1,300,–,–,–,–,–
